# Columns and labels:
# FLT3(ITD) = FLT3(ITD) (Homo sapiens, UniProt P36888, ITD); assay: biochemical; design: DiscoverX KINOMEscan kinase panel, per cent of control (100 = no effect), single concentrations; settings: per cent of control, KINOMEscan; read-out: Percent Control
# Description: (§1) The structure and synthesis of VIP152 were recently described by Lücking et al.. (Fig. 1A); however, the selectivity of the molecule in cellular systems has yet to be explored. […] We also performed this experiment at 1000 nM, where CDK9 was inhibited at 99%. […] We found a strong concordance between our data and those of Lücking when comparing the most inhibited kinases. Potential off-target effects of VIP152 were next tested in vitro at a concentration of 10 µM for off-target activity against a broad range of receptors, transporters, ion channels, and enzymes (n = 138) using the Eurofins Diversity Panel. […] A Chemical structure of VIP152.
# FLT3(ITD,D835V) = FLT3(ITD,D835V) (Homo sapiens, UniProt P36888, D835V/ITD); assay: biochemical; design: DiscoverX KINOMEscan kinase panel, per cent of control (100 = no effect), single concentrations; settings: per cent of control, KINOMEscan; read-out: Percent Control
# Description: as §1
# [1] = target: EGFR(L747-S752del, P753S) (Homo sapiens, UniProt P00533, DEL747-752/P753S); assay: biochemical; design: DiscoverX KINOMEscan kinase panel, per cent of control (100 = no effect), single concentrations; settings: per cent of control, KINOMEscan; read-out: Percent Control
# Description: as §1
# FLT3(ITD,F691L) = FLT3(ITD,F691L) (Homo sapiens, UniProt P36888, F691L/ITD); assay: biochemical; design: DiscoverX KINOMEscan kinase panel, per cent of control (100 = no effect), single concentrations; settings: per cent of control, KINOMEscan; read-out: Percent Control
# Description: as §1
# EGFR(L747-T751del,Sins) = EGFR(L747-T751del,Sins) (Homo sapiens, UniProt P00533, DEL747-750/T751S); assay: biochemical; design: DiscoverX KINOMEscan kinase panel, per cent of control (100 = no effect), single concentrations; settings: per cent of control, KINOMEscan; read-out: Percent Control
# Description: as §1
# [2] = target: EGFR(L747-E749del, A750P) (Homo sapiens, UniProt P00533, A750P/DEL747-749); assay: biochemical; design: DiscoverX KINOMEscan kinase panel, per cent of control (100 = no effect), single concentrations; settings: per cent of control, KINOMEscan; read-out: Percent Control
# Description: as §1
# TAOK3 = TAOK3 (Homo sapiens, UniProt Q9H2K8); assay: KINOMEscan: TAOK3; type: binding; settings: 100 nM, read-out: Percent Control
# HIPK3 = HIPK3 (Homo sapiens, UniProt Q9H422); assay: KINOMEscan: HIPK3; type: binding; settings: 1000 nM, read-out: Percent Control
# ERN1 = ERN1 (Homo sapiens, UniProt O75460); assay: KINOMEscan: ERN1; type: binding; settings: 1000 nM, read-out: Percent Control
# ERN1, sequence (O75460 19-977): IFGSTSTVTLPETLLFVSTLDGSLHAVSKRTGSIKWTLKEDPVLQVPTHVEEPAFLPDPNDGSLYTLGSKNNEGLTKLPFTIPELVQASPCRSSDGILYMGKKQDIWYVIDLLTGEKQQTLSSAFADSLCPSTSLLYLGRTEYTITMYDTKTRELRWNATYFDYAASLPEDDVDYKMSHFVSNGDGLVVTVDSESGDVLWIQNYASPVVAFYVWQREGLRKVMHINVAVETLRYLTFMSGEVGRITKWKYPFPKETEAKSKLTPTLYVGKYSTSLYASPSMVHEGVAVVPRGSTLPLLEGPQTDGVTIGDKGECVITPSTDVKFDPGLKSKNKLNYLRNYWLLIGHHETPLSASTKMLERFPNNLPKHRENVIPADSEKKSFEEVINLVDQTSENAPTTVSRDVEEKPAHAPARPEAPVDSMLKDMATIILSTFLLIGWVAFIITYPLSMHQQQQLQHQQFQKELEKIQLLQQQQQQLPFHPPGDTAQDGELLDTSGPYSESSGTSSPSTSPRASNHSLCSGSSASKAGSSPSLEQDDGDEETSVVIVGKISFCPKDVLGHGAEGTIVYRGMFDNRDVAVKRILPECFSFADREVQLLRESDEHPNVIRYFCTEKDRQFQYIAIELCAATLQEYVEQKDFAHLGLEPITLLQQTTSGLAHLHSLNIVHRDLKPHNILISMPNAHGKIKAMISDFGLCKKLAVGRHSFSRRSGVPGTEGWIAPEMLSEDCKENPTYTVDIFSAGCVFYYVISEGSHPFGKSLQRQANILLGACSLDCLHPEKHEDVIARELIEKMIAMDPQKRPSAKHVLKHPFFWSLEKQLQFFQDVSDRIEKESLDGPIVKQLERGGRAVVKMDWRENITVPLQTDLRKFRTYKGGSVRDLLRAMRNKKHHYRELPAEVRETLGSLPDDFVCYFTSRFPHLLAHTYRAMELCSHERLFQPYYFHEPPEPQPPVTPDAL
# GSK3B = GSK3B (Homo sapiens, UniProt P49841); assay: KINOMEscan: GSK3B; type: binding; settings: 1000 nM, read-out: Percent Control
# ROCK2 = ROCK2 (Homo sapiens, UniProt O75116); assay: KINOMEscan: ROCK2; type: binding; settings: 100 nM, read-out: Percent Control
# Adrenergic β2 = Adrenergic β2 (Homo sapiens, UniProt P07550); assay: Eurofins Diversity Panel; type: binding; settings: hum, Conc. 10 μM
# TGFBR2 = TGFBR2 (Homo sapiens, UniProt P37173); assay: KINOMEscan: TGFBR2; type: binding; settings: 100 nM, read-out: Percent Control
# AAK1 = AAK1 (Homo sapiens, UniProt Q2M2I8); assay: KINOMEscan: AAK1; type: binding; settings: 1000 nM, read-out: Percent Control
# S6K1 = S6K1 (Homo sapiens, UniProt P23443); assay: KINOMEscan: S6K1; type: binding; settings: 100 nM, read-out: Percent Control
# Adrenergic β1 = Adrenergic β1 (Homo sapiens, UniProt P08588); assay: Eurofins Diversity Panel; type: binding; settings: hum, Conc. 10 μM
# Adrenergic β1, sequence (P08588 whole entry): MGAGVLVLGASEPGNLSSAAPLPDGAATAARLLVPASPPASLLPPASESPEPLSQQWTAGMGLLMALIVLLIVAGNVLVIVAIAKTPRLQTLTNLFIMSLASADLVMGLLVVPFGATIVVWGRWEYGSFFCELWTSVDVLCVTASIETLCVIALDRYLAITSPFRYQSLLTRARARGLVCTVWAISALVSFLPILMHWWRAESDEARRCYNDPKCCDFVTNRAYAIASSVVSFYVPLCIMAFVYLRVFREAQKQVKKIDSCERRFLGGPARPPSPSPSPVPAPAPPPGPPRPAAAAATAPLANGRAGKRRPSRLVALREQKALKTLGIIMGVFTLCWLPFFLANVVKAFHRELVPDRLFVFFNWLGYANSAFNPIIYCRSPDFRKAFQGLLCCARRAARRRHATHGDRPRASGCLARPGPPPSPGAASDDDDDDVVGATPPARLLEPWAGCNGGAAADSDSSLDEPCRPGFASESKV
# TTK = TTK (Homo sapiens, UniProt P33981); assay: KINOMEscan: TTK; type: binding; settings: 100 nM, read-out: Percent Control
# CSNK1G3 = CSNK1G3 (Homo sapiens, UniProt Q9Y6M4); assay: KINOMEscan: CSNK1G3; type: binding; settings: 1000 nM, read-out: Percent Control
# TSSK1B = TSSK1B (Homo sapiens, UniProt Q9BXA7); assay: KINOMEscan: TSSK1B; type: binding; settings: 100 nM, read-out: Percent Control
# TSSK1B, sequence (Q9BXA7 whole entry): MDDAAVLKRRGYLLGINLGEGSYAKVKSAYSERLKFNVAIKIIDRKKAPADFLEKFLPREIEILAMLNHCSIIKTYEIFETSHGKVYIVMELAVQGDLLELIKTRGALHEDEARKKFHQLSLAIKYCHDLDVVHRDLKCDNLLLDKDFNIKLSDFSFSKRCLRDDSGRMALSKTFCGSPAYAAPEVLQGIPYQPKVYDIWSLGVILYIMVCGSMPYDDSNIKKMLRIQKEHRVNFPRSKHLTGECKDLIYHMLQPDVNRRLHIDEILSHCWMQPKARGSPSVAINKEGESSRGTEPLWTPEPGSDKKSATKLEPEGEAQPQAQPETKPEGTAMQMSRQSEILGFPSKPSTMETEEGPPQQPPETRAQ
# CAMK2G = CAMK2G (Homo sapiens, UniProt Q13555); assay: KINOMEscan: CAMK2G; type: binding; settings: 1000 nM, read-out: Percent Control
# VEGFR2 = VEGFR2 (Homo sapiens, UniProt P35968); assay: KINOMEscan: VEGFR2; type: binding; settings: 100 nM, read-out: Percent Control
# VEGFR2, sequence (P35968 20-1356): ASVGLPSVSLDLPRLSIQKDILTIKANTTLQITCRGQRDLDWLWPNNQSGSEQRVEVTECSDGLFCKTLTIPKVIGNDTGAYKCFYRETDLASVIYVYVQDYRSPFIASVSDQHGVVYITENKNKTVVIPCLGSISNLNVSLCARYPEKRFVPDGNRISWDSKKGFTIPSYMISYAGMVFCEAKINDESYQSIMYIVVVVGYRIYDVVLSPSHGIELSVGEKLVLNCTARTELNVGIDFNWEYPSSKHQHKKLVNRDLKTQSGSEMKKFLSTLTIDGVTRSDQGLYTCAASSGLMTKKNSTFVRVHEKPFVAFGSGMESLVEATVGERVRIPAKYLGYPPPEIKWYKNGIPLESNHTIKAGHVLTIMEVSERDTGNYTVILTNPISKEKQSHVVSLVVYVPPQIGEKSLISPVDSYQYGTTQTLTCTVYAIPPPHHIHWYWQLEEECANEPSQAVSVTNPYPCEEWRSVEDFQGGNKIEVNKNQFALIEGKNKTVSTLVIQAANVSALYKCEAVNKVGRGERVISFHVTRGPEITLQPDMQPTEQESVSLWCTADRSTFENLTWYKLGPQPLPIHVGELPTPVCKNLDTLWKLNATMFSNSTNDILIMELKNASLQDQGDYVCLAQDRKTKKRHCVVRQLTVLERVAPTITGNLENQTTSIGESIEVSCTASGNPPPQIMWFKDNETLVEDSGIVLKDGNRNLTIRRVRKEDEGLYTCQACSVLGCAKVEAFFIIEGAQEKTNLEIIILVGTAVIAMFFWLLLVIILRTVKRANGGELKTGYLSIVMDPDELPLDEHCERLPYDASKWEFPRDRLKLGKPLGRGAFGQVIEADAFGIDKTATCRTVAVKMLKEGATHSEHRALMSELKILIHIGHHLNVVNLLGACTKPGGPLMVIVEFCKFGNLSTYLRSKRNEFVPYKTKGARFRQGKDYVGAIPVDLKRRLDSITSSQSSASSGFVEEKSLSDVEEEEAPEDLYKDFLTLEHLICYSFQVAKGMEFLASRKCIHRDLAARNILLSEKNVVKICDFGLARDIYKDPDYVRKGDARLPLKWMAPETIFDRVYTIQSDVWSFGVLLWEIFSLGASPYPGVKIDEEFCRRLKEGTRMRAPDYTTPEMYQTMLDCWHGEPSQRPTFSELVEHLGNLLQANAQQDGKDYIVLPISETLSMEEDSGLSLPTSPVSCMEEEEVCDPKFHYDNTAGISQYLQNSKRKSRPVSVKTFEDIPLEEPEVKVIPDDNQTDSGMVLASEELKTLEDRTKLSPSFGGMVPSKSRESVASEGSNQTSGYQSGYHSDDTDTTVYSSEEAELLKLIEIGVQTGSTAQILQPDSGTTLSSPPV
# ULK2 = ULK2 (Homo sapiens, UniProt Q8IYT8); assay: KINOMEscan: ULK2; type: binding; settings: 100 nM, read-out: Percent Control
# ULK2, sequence (Q8IYT8 whole entry): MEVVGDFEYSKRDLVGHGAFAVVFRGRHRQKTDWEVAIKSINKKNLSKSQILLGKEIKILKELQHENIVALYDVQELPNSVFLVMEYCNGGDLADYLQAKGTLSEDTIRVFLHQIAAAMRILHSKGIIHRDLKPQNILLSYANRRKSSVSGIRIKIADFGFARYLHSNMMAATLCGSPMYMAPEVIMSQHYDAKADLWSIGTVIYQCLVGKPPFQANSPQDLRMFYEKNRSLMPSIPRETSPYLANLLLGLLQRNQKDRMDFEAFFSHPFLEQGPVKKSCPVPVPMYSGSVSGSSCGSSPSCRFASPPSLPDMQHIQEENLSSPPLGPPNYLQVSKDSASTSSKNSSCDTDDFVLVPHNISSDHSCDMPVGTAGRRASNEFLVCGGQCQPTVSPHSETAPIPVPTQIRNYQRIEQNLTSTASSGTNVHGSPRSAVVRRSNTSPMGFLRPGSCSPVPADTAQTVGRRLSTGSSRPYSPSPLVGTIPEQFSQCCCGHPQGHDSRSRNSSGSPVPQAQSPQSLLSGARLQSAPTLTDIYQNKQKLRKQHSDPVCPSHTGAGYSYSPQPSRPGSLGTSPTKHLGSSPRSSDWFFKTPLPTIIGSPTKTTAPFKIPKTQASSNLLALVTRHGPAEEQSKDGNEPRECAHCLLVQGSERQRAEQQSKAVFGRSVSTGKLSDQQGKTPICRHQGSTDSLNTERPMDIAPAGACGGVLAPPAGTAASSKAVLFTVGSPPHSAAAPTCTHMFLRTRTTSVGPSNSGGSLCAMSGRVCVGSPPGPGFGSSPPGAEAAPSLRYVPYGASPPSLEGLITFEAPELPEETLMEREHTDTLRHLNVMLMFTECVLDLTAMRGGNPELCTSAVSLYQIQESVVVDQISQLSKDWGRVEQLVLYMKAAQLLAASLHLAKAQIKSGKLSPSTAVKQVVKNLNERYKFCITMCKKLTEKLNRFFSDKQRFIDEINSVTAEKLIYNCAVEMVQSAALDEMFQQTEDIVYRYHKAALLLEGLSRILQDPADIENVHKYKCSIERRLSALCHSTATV
# [3] = target: RPS6KA5(Kin.Dom.1-N-terminal) (Homo sapiens, UniProt O75582); assay: KINOMEscan: RPS6KA5(Kin.Dom.1-N-terminal); type: binding; settings: 100 nM, read-out: Percent Control
# BLK = BLK (Homo sapiens, UniProt P51451); assay: KINOMEscan: BLK; type: binding; settings: 1000 nM, read-out: Percent Control
# EPHB4 = EPHB4 (Homo sapiens, UniProt P54760); assay: KINOMEscan: EPHB4; type: binding; settings: 1000 nM, read-out: Percent Control
# CSNK1E = CSNK1E (Homo sapiens, UniProt P49674); assay: KINOMEscan: CSNK1E; type: binding; settings: 1000 nM, read-out: Percent Control
# CSNK1E, sequence (P49674 whole entry): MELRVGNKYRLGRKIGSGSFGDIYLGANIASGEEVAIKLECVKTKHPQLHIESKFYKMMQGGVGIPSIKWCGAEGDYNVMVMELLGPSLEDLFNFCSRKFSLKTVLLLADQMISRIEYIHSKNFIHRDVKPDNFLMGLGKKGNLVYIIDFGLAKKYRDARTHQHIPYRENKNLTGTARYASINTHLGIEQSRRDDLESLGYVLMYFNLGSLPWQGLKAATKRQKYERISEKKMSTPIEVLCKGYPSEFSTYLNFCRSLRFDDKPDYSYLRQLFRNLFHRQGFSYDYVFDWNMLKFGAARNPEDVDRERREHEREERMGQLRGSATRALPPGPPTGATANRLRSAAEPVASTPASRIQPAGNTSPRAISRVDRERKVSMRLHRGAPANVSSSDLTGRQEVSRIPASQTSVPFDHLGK
# EPHA1 = EPHA1 (Homo sapiens, UniProt P21709); assay: KINOMEscan: EPHA1; type: binding; settings: 1000 nM, read-out: Percent Control
# MARK3 = MARK3 (Homo sapiens, UniProt P27448); assay: KINOMEscan: MARK3; type: binding; settings: 1000 nM, read-out: Percent Control
# ARK5 = ARK5 (Homo sapiens, UniProt O60285); assay: KINOMEscan: ARK5; type: binding; settings: 1000 nM, read-out: Percent Control
# MAP4K5 = MAP4K5 (Homo sapiens, UniProt Q9Y4K4); assay: KINOMEscan: MAP4K5; type: binding; settings: 1000 nM, read-out: Percent Control
# CSNK2A1 = CSNK2A1 (Homo sapiens, UniProt P68400); assay: KINOMEscan: CSNK2A1; type: binding; settings: 1000 nM, read-out: Percent Control
# CLK4 = CLK4 (Homo sapiens, UniProt Q9HAZ1); assay: KINOMEscan: CLK4; type: binding; settings: 1000 nM, read-out: Percent Control
# CLK4, sequence (Q9HAZ1 whole entry): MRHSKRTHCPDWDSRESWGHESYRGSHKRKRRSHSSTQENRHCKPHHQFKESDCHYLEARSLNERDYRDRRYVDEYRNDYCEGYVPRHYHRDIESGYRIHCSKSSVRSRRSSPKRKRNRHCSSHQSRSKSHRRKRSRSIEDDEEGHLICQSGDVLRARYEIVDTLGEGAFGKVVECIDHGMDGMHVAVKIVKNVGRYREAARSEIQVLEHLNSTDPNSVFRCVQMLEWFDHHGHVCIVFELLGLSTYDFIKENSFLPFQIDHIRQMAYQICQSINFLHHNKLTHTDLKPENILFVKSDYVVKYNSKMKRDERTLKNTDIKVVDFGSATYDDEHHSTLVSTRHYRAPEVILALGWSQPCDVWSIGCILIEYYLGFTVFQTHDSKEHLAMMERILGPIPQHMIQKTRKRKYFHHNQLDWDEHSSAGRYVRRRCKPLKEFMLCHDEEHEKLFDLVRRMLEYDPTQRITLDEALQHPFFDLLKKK
smiles,measurement,setting,value
COc1cc(F)ccc1-c1cc(Nc2cc(CS(C)(=N)=O)ccn2)ncc1F (centres unmarked) [VIP152],remaining binding at 0.1 µM,FLT3(ITD),100%
same,remaining binding at 0.1 µM,"FLT3(ITD,D835V)",100%
same,remaining binding at 0.1 µM,[1],93%
same,remaining binding at 0.1 µM,"FLT3(ITD,F691L)",99%
same,remaining binding at 0.1 µM,"EGFR(L747-T751del,Sins)",100%
same,remaining binding at 0.1 µM,[2],100%
same,remaining binding at 0.1 µM,TAOK3,88%
same,remaining binding at 1 µM,HIPK3,66%
same,remaining binding at 1 µM,ERN1,86%
same,remaining binding at 1 µM,GSK3B,11%
same,remaining binding at 0.1 µM,ROCK2,100%
same,inhibition at 10 µM,Adrenergic β2,3%
same,remaining binding at 0.1 µM,TGFBR2,100%
same,remaining binding at 1 µM,AAK1,47%
same,remaining binding at 0.1 µM,S6K1,96%
same,inhibition at 10 µM,Adrenergic β1,-7%
same,remaining binding at 0.1 µM,TTK,95%
same,remaining binding at 1 µM,CSNK1G3,97%
same,remaining binding at 0.1 µM,TSSK1B,78%
same,remaining binding at 1 µM,CAMK2G,78%
same,remaining binding at 0.1 µM,VEGFR2,89%
same,remaining binding at 0.1 µM,ULK2,100%
same,remaining binding at 0.1 µM,[3],100%
same,remaining binding at 1 µM,BLK,76%
same,remaining binding at 1 µM,EPHB4,100%
same,remaining binding at 1 µM,CSNK1E,89%
same,remaining binding at 1 µM,EPHA1,78%
same,remaining binding at 1 µM,MARK3,100%
same,remaining binding at 1 µM,ARK5,100%
same,remaining binding at 1 µM,MAP4K5,41%
same,remaining binding at 1 µM,CSNK2A1,97%
same,remaining binding at 1 µM,CLK4,88%
